From patent US20160090397A1, “Se-Adenosyl-L-Selenohomocysteine Selenoxide As A Modulator Of Methyltransferase And Other Activities” (priority 2014, published 2016)
“Also recorded” adds a separate entry of the source.

Key:
[1] = Reduction of selenoxide/sulfoxide by thiols and thioethers at ambient temperature (C18 HPLC); assay type: physicochemical; details: for reduction by glutathione (GSH) / reduction by cysteine: ambient temperature; for reduction by glutathione (GSH): C18 HPLC
Excerpt: The sulfoxide SAHO analog was not reduced under these biological conditions with glutathione (GSH) or cysteine. The reduction of sulfoxides generally requires more forcing conditions.

[2] = molecular target: T1, phenylethanolamine N-methyltransferase (PNMT) (Homo sapiens, UniProt P11086); details: in vitro; cited from earlier work
T1 sequence (P11086 1-282): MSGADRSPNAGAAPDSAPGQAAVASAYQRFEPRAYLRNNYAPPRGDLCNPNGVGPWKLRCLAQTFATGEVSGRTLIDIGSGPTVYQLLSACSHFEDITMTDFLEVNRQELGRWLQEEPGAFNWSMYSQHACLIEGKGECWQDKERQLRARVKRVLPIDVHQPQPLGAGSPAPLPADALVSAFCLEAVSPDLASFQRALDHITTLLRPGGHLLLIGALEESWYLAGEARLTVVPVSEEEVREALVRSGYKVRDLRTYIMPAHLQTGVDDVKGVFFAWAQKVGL

[3] = molecular target: histamine N-methyltransferase (HMT) (Homo sapiens, UniProt P50135); details: in vitro; cited from earlier work
[4] = tested on: viral mRNA methyltransferases; details: in vitro; cited from earlier work
[5] = molecular target: E. coli cyclopropane fatty acid synthase (Escherichia coli, UniProt P0A9H7); details: in vitro; cited from earlier work
[6] = molecular target: T2, catechol-O-methyltransferase (COMT) (Homo sapiens, UniProt P21964); details: in vitro; cited from earlier work
T2 sequence (P21964 1-271): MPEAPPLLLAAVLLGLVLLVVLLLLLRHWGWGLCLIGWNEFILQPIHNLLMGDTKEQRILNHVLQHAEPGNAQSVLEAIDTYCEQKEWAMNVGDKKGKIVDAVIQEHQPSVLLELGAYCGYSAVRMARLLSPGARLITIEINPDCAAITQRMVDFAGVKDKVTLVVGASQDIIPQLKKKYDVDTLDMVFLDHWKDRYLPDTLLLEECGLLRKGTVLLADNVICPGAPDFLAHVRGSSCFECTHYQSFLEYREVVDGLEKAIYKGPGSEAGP

[7] = molecular target: protein methyltransferase II (Homo sapiens, UniProt P22061); details: in vitro; cited from earlier work
[8] = molecular target: T2, catechol-O-methyltransferase (COMT); test: Reduction upon incubation with methyltransferase COMT; assay type: biochemical
Method: (§1) However, SeAHO was not reduced upon incubation with the non-methyltransferase protein lysozyme (data not shown). […] The reduction of SeAHO by methyltransferases may result in the oxidation or modification of these enzymes. This property could be exploited to identify methyltransferases that are reactive with SeAHO, or, depending on the site of oxidation, this process may modulate the activities of methyltransferases. In other words, SeAHO may act as a covalent inhibitor (reactive or suicide inhibitor) or activator of these methyltransferases.

[9] = molecular target: T2, catechol-O-methyltransferase (COMT); test: COMT-catalysed oxidation of epinephrine to adrenochrome with SeAHO; assay type: biochemical; details: various COMT concentrations
Excerpt: This reactivity (redox reaction) conferred by SeAHO can be exploited to oxidize substrate compounds in a selective and specific manner.

[10] = tested on: lysozyme; test: Incubation with non-methyltransferase protein lysozyme; assay type: biochemical; details: data not shown
Method: as §1

[11] = molecular target: T3, thiopurine methyltransferase (TPMT) (Homo sapiens, UniProt P51580); test: Reduction upon incubation with methyltransferase TPMT; assay type: biochemical
T3 sequence (P51580 1-245): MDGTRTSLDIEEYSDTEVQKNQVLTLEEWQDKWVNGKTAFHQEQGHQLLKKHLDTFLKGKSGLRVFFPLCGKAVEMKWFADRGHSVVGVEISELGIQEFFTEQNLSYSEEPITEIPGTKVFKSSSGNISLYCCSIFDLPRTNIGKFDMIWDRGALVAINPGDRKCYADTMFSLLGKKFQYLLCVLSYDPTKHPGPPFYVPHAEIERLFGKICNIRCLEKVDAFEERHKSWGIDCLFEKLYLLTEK
Method: as §1

[12] = Stability of SeAHO in aqueous solutions (HPLC, proton NMR); assay type: physicochemical
Method: Characterization of selenoxide SeAHO in an aqueous environment was of greater biological significance.
The selenoxide SeAHO generally appeared to be a 60:40 mixture by ^1H NMR in 50 mM phosphate buffers of D2O at measured pH's of 3 and 7.

[13] = molecular target: T3, thiopurine methyltransferase (TPMT); test: Oxidation of thionitrobenzoate (TNB), Se-SAHO as TPMT substrate (absorbance); assay type: biochemical
Excerpt: FIG. 1 depicts an absorbance spectrum for Se—SAHO as a thiopurine methyltransferase (TPMT) substrate wherein the oxidation of thionitrobenzoate (TNB) by H2O2 causes a clear shift in absorbance maxima from ˜410 nm to ˜325 nm.

protein methyltransferase II, sequence (P22061 whole entry): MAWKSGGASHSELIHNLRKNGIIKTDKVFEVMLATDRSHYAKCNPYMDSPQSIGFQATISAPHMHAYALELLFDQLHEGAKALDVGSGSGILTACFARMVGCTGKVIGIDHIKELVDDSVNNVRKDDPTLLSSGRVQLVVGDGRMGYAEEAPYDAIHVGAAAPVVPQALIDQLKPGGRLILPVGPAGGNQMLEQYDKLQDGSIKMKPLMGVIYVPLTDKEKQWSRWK
E. coli cyclopropane fatty acid synthase, sequence (P0A9H7 whole entry): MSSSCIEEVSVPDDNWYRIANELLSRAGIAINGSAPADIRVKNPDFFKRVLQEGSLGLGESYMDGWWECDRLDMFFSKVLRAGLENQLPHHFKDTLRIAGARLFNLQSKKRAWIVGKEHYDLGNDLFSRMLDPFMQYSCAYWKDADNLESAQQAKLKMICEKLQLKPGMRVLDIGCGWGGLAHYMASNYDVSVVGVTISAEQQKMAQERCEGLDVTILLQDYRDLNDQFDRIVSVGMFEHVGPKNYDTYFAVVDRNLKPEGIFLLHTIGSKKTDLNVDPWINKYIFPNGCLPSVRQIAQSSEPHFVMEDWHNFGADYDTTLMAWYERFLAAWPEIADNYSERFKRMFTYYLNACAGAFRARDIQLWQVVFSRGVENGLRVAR
histamine N-methyltransferase (HMT), sequence (P50135 whole entry, species assumed): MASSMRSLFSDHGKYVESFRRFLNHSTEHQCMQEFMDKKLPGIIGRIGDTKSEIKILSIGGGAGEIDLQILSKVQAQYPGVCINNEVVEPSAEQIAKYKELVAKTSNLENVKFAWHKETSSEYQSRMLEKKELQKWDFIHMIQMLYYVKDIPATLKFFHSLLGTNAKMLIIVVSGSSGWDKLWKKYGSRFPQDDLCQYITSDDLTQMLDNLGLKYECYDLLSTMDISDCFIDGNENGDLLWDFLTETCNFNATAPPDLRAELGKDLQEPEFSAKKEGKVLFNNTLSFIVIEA

Compound: Nc1ncnc2c1ncn2[C@@H]1O[C@H](C[S+]([O-])CC[C@H](N)C(=O)O)[C@@H](O)[C@H]1O (some centres unmarked) [SAHO]
- reduction by glutathione (GSH) [1]: not reduced
- reduction by cysteine ([1]; data not shown): not reduced
- inhibition of PNMT [2]: inhibitor
- inhibition of HMT [3]: inhibitor
- inhibition of viral mRNA methyltransferases [4]: inhibitor
- inhibition of E. coli cyclopropane fatty acid synthase [5]: inhibitor
- inhibition of COMT [6]: inhibitor
- inhibition of protein methyltransferase II [7]: inhibitor
- reduction upon incubation with COMT [8]: remains oxidized

Compound: Nc1ncnc2c1ncn2[C@@H]1O[C@H](C[Se](=O)CC[C@H](N)C(=O)O)C(O)[C@@H]1O (some centres unmarked) [SeAHO, Se-Adenosylselenohomocysteine selenoxide]
- COMT-catalysed oxidation of epinephrine to adrenochrome [9]: reacts with epinephrine to form adrenochrome at a rate dependent on COMT concentration; also recorded: catalyzes the oxidation of epinephrine with SeAHO and the production of adrenochrome and SeAH
- reduction by glutathione (GSH) [1]: readily reduced
- reduction by cysteine ([1]; data not shown): also reduced; also recorded: readily reduced
- reduction by thioether methionine ([1]; data not shown): not by thioethers methionine
- reduction upon incubation with lysozyme [10]: not reduced
- reduction upon incubation with TPMT [11]: reduced to Se-adenosyl-L-selenohomocysteine (SeAH)
- decomposition by HPLC ([12]; after 2 weeks or when prepared in pure deionized water): some decomposition was observed
- decomposition by NMR ([12]; pH 12 phosphate buffer): only a very small amount of decomposition was observed
- stability to hydrolysis of the C1′-adenine bond / degradation ([12]; phosphate buffered aqueous solutions, pH 3-12, ambient temperature, at least three hours, HPLC or proton NMR): completely stable
- reduction upon incubation with COMT [8]: reduced to Se-adenosyl-L-selenohomocysteine (SeAH)

Compound: Se-Adenosylselenohomocysteine selenoxide [SeAHO]
- oxidation of TNB (shift in absorbance maxima) [13]: able to oxidize TNB
